These results are taken from patent US20260356851A1, “TRICYCLIC COMPOUNDS AND USES THEREOF” (HUTCHMED LIMITED, priority 2023, published 2026).

Format in all cases: cell-based
Assay [1] concerns the target T1, pERK1/2 (Thr202/Tyr204), PANC-1 (KRAS G121D) (Homo sapiens, UniProt P01116, G12D).
T1 construct: pERK1/2 HTRF read-out
Description: Assay of intracellular pERK1/2 (Thr202/Tyr204) phosphorylation in PANC-1 cells (KRAS G12D). The conditions noted are these: pERK1/2, 2 days, read-out: PANC-1 (KRAS G12D) IC50. The essentials:
(§1)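 HTRF detection of Thr202/Tyr204-phosphorylated ERK1/2 (665/615 nm ratio) in lysates from cells treated 2 days with serially 3-fold diluted compound.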

Assay [2] has as its target T2, pERK1/2 (Thr202/Tyr204), NCI-1H358 (KRAS G12C) (Homo sapiens, UniProt P01116, G12C).
T2 construct: pERK1/2 HTRF read-out
Description: Assay of intracellular pERK1/2 (Thr202/Tyr204) phosphorylation in NCI-H358 cells (KRAS G12C). The conditions noted are these: pERK1/2, 2 days, read-out: NCI-H358 (KRAS G12C) IC50. A digest of the protocol: as §1

Assay [3] addresses T3, pERK1/2 (Thr202/Tyr204), NCI-1H441 (KRAS G12V) (Homo sapiens, UniProt P01116, G12V).
T3 construct: pERK1/2 HTRF read-out
Description: Assay of intracellular pERK1/2 (Thr202/Tyr204) phosphorylation in NCI-H441 cells (KRAS G12V). The conditions noted are these: pERK1/2, 2 days, read-out: NCI-H441 (KRAS G12V) IC50. A digest of the protocol:
as §1

Each structure is given as a SMILES string. pIC50: −log10 of the molar value.

T1 sequence (P01116 1-188 isoform P01116-2 G12D): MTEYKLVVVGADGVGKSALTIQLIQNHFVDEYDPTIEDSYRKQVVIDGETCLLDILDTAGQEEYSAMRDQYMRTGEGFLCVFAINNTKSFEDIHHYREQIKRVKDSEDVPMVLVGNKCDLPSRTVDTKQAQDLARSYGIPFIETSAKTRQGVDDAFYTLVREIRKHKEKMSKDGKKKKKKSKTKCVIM
T2 sequence (P01116 1-188 isoform P01116-2 G12C): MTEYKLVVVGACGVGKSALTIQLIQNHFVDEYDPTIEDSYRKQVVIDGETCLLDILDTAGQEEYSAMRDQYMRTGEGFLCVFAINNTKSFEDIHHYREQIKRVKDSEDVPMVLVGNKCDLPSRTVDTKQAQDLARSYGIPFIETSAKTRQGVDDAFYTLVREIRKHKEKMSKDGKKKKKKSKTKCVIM
T3 sequence (P01116 1-188 isoform P01116-2 G12V): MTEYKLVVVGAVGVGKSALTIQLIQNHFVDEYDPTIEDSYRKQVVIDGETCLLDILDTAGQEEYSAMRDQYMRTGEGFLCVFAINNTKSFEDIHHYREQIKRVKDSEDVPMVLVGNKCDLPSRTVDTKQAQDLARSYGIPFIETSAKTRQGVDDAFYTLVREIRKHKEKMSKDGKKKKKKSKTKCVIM

Usually pIC50 stands for the negative decadic logarithm of the IC50, by convention in mol/L. With `CC(c1cccnc1N)N1CCOc2nc(-c3cc(N)cc(Cl)c3C3CC3)c(F)c3nc(OC[C@@]45CCCN4C[C@H](F)C5)nc1c23` (single isomer, unassigned) [Compound 74, 3-((R or S)-1-(5-(5-amino-3-chloro-2-cyclopropylphenyl)-4-fluoro-2-(((2R,7aS)-2-fluorotetrahydro-1H-pyrrolizin-7a(5H)-yl)methoxy)-8,9-dihydro-10H-7-oxa-1,3,6,10-tetraazacyclohepta[de]naphthalen-10-yl)ethyl)pyridin-2-amine], the pIC50 in assay [1] was 8.40; in assay [2] it was 9.70; in assay [3], 9.40.
As for `CC(c1cccnc1N)N1CCOc2nc(-c3cc(N)cc(Cl)c3C3CC3)c(F)c3nc(OC[C@@]45CCCN4C[C@H](F)C5)nc1c23` (single isomer, unassigned) [Compound 75, 3-((R or S)-1-(5-(5-amino-3-chloro-2-cyclopropylphenyl)-4-fluoro-2-(((2R,7aS)-2-fluorotetrahydro-1H-pyrrolizin-7a(5H)-yl)methoxy)-8,9-dihydro-10H-7-oxa-1,3,6,10-tetraazacyclohepta[de]naphthalen-10-yl)ethyl)pyridin-2-amine], the pIC50 in assay [1] was 7.40; in assay [2], 8.30; in assay [3] it was 7.96.
Consider `Cc1cc(N)cc(-c2nc3c4c(nc(OC[C@@H]5CCCN5C)nc4c2F)N(C(C)c2cccnc2N)CCO3)c1C(F)(F)F` (single isomer, unassigned) [Compound 76, 3-((R or S)-1-(5-(5-amino-3-methyl-2-(trifluoromethyl)phenyl)-4-fluoro-2-(((S)-1-methylpyrrolidin-2-yl)methoxy)-8,9-dihydro-10H-7-oxa-1,3,6,10-tetraazacyclohepta[de]naphthalen-10-yl)ethyl)pyridin-2-amine], for which the results for the pIC50 in assay [1], in assay [2] and in assay [3] were 7.74, 9.30 and 9.15, respectively.
Take `Cc1cc(N)cc(-c2nc3c4c(nc(OC[C@@H]5CCCN5C)nc4c2F)N(C(C)c2cccnc2N)CCO3)c1C(F)(F)F` (single isomer, unassigned) [Compound 77, 3-((R or S)-1-(5-(5-amino-3-methyl-2-(trifluoromethyl)phenyl)-4-fluoro-2-(((S)-1-methylpyrrolidin-2-yl)methoxy)-8,9-dihydro-10H-7-oxa-1,3,6,10-tetraazacyclohepta[de]naphthalen-10-yl)ethyl)pyridin-2-amine]: the pIC50 in assay [1] is less than 7.00; in assay [2] it was 7.42; in assay [3] it was 7.43.
With `Cc1cc(N)cc(-c2nc3c4c(nc(OC[C@H]5CCCN5CCF)nc4c2F)N(C(C)c2cccnc2N)CCO3)c1C(F)(F)F` (single isomer, unassigned) [Compound 78, 3-((R or S)-1-(5-(5-amino-3-methyl-2-(trifluoromethyl)phenyl)-4-fluoro-2-(((R)-1-(2-fluoroethyl)pyrrolidin-2-yl)methoxy)-8,9-dihydro-10H-7-oxa-1,3,6,10-tetraazacyclohepta[de]naphthalen-10-yl)ethyl)pyridin-2-amine], the pIC50 in assay [1] is 7.38; in assay [2] it was 8.70; in assay [3], 8.52.
In the same order, the values of `Cc1cc(N)cc(-c2nc3c4c(nc(OC[C@H]5CCCN5CCF)nc4c2F)N(C(C)c2cccnc2N)CCO3)c1C(F)(F)F` (single isomer, unassigned) [Compound 79, 3-((R or S)-1-(5-(5-amino-3-methyl-2-(trifluoromethyl)phenyl)-4-fluoro-2-(((R)-1-(2-fluoroethyl)pyrrolidin-2-yl)methoxy)-8,9-dihydro-10H-7-oxa-1,3,6,10-tetraazacyclohepta[de]naphthalen-10-yl)ethyl)pyridin-2-amine] are less than 7.00, less than 7.00 and less than 7.00.
Take `Cc1cc(N)cc(-c2nc3c4c(nc(OC[C@@H]5C[C@@H](F)CN5C)nc4c2F)N(C(C)c2cccnc2N)CCO3)c1C(F)(F)F` (single isomer, unassigned) [Compound 80, 3-((R or S)-1-(5-(5-amino-3-methyl-2-(trifluoromethyl)phenyl)-4-fluoro-2-(((2S,4R)-4-fluoro-1-methylpyrrolidin-2-yl)methoxy)-8,9-dihydro-10H-7-oxa-1,3,6,10-tetraazacyclohepta[de]naphthalen-10-yl)ethyl)pyridin-2-amine]: the pIC50 is 7.72 in assay [1], 9.30 in assay [2] and 9.15 in assay [3].
As for `Cc1cc(N)cc(-c2nc3c4c(nc(OC[C@@H]5C[C@@H](F)CN5C)nc4c2F)N(C(C)c2cccnc2N)CCO3)c1C(F)(F)F` (single isomer, unassigned) [Compound 81, 3-((R or S)-1-(5-(5-amino-3-methyl-2-(trifluoromethyl)phenyl)-4-fluoro-2-(((2S,4R)-4-fluoro-1-methylpyrrolidin-2-yl)methoxy)-8,9-dihydro-10H-7-oxa-1,3,6,10-tetraazacyclohepta[de]naphthalen-10-yl)ethyl)pyridin-2-amine], the pIC50 in assay [1], in assay [2] and in assay [3] was less than 7.00 each time.
In the case of `Cc1c(F)c(N)cc(-c2nc3c4c(nc(OC[C@@H]5CCCN5C)nc4c2F)N(C(C)c2cccnc2N)CCO3)c1C(F)(F)F` (single isomer, unassigned) [Compound 85, 3-((R or S)-1-(5-(5-amino-4-fluoro-3-methyl-2-(trifluoromethyl)phenyl)-4-fluoro-2-(((S)-1-methylpyrrolidin-2-yl)methoxy)-8,9-dihydro-10H-7-oxa-1,3,6,10-tetraazacyclohepta[de]naphthalen-10-yl)ethyl)pyridin-2-amine], the pIC50 in assay [1] is 7.96; in assay [2] it was 9.40; in assay [3], 8.70.
With `Cc1c(F)c(N)cc(-c2nc3c4c(nc(OC[C@@H]5CCCN5C)nc4c2F)N(C(C)c2cccnc2N)CCO3)c1C(F)(F)F` (single isomer, unassigned) [Compound 86, 3-((R or S)-1-(5-(5-amino-4-fluoro-3-methyl-2-(trifluoromethyl)phenyl)-4-fluoro-2-(((S)-1-methylpyrrolidin-2-yl)methoxy)-8,9-dihydro-10H-7-oxa-1,3,6,10-tetraazacyclohepta[de]naphthalen-10-yl)ethyl)pyridin-2-amine], the pIC50 in assay [1] was less than 7.00; in assay [2], 7.54; in assay [3], 7.37.
For `CC(c1cccnc1N)N1CCOc2nc(-c3cc(N)cc(F)c3C(F)(F)F)c(F)c3nc(OC[C@@]45CCCN4C[C@H](F)C5)nc1c23` (single isomer, unassigned) [Compound 88, 3-((R or S)-1-(5-(5-amino-3-fluoro-2-(trifluoromethyl)phenyl)-4-fluoro-2-(((2R,7aS)-2-fluorotetrahydro-1H-pyrrolizin-7a(5H)-yl)methoxy)-8,9-dihydro-10H-7-oxa-1,3,6,10-tetraazacyclohepta[de]naphthalen-10-yl)ethyl)pyridin-2-amine], the pIC50 in assay [1] was 8.52; in assay [2], 9.40; in assay [3], 9.00.
